Assay: Solubility in water
Format: physicochemical
Conditions: water at 20° C.

CN/C(=N\[N+](=O)[O-])NCc1cnc(Cl)s1 [compound (II)]
solubility: ≤ 300 µg/mL
